Reference: patent EP1283052A1, “Pharmaceutical composition containing caspase-8 and /or caspase-9 useful for overcoming glucocorticoid- and cancer therapy-induced apoptosis of tumours” (Deutsches Krebsforschungszentrum Stiftung des öffentlichen …, priority 2001, dated 2003)

Test system: caspase-9 and -6
Assay: Fluorometric caspase-6/9 activity assay in P693 cells
Format: cell-based, human
Settings: cisplatin 2 µg/ml alone, Fig. 5a
Description: • (a) P693 and CEM cells were treated with cisplatin (2 µg/ml) in the absence or presence of DEX (1 µM) as indicated. 24 and 48 h following treatment cells were lysed and caspase-9 activity was determined using a fluorescent caspase-9 assay and spectroscopy. • (b) P5 and CEM cells were treated as described above. 24 h after stimulation Apaf-1 was immunoprecipitated from the cell extracts using a […]. Aliquotes of the precipitates were separated by three different gels and analysed by Western blotting using rabbit polyclonal Apaf-1, mAb cytochrome c or caspase-9 antibodies. The antibody heavy chain band (IgGH) ensures equal conditions. […]
• (A) Cell culture. […] The mice were given 0.28 mg/L DEX in drinking water, and the amount of water consumed was monitored. […] The tumour volumes were measured using callipers, and calculated using, as an approximation, the formula for volume of a hemi-ellipsoid: π(width^2 x length)/6. […] Early apoptotic changes were identified by staining of cells with fluoresceinthiocyanate (FITC)-conjugated annexin V and propidium iodide (Becton Dickinson, Heidelberg, Germany) and analysed by flow cytometry (FACScan, Becton Dickinson) as described (Herr et al., EMBO J. 16 (1997), 6200-6208) • (E) Immunohistochemistry. […] Bound antibodies were detected by FITC conjugated anti-mouse or anti-rabbit IgG (Molecular Probes Europe, Leiden, The Netherlands). […]

Q: `N.N.[Cl][Pt][Cl]` [cisplatin] was tested. Which caspase-6/9 activity did it give?
A: induced 24 h following cisplatin in P693 and CEM cells with increasing activity at 48 h
